PubChem BioAssay (NCI)
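Exposure lasted 48 hours, with cells grown in 96-well plates and compounds tested at five concentrations. GI50 = concentration required for 50% inhibition of growth. TGI: total growth inhibition.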

Columns and labels:
Experiment in all cases: NCI anticancer screen, dose series, 48 h
[1] = tested on: A498 renal
[2] = tested on: A549 NSCLC
[3] = tested on: ACHN renal
[4] = tested on: BT-549 breast
[5] = tested on: CAKI-1 renal
[6] = tested on: CCRF-CEM leukemia
[7] = tested on: COLO 205 colon
[8] = tested on: DU-145 prostate
[9] = tested on: EKVX NSCLC
[10] = tested on: HCC-2998 colon
[11] = tested on: HCT-116 colon
[12] = tested on: HCT-15 colon
[13] = tested on: HL-60(TB) leukemia
[14] = tested on: HOP-62 NSCLC
[15] = tested on: HOP-92 NSCLC
[16] = tested on: HS 578T breast
[17] = tested on: HT29 colon
[18] = tested on: IGROV1 ovarian
[19] = tested on: K-562 leukemia
[20] = tested on: KM12 colon
[21] = tested on: LOX IMVI melanoma
[22] = tested on: MALME-3M melanoma
[23] = tested on: MCF7 breast
[24] = tested on: MDA-MB-231 breast
[25] = tested on: MDA-MB-435
[26] = tested on: MOLT-4 leukemia
[27] = tested on: NCI-H226 lung
[28] = tested on: NCI-H23 lung
[29] = tested on: NCI-H460 lung
[30] = tested on: NCI-H522 lung
[31] = tested on: NCI/ADR-RES ovarian
[32] = tested on: OVCAR-3 ovarian
[33] = tested on: OVCAR-4 ovarian
[34] = tested on: OVCAR-5 ovarian
[35] = tested on: OVCAR-8 ovarian
[36] = tested on: PC-3 prostate
[37] = tested on: RPMI-8226 leukemia
[38] = tested on: RXF 393 renal
[39] = tested on: SF-268 CNS
[40] = tested on: SF-295 CNS
[41] = tested on: SK-MEL-2 melanoma
[42] = tested on: SK-MEL-28 melanoma
[43] = tested on: SK-MEL-5 melanoma
[44] = tested on: SK-OV-3 ovarian
[45] = tested on: SN12C renal
[46] = tested on: SNB-19 CNS
[47] = tested on: SNB-75 CNS
[48] = tested on: SR leukemia
[49] = tested on: SW-620 colon
[50] = tested on: T-47D breast
[51] = tested on: TK-10 renal
[52] = tested on: U251 CNS
[53] = tested on: UACC-257 melanoma
[54] = tested on: UACC-62 melanoma
[55] = tested on: UO-31 renal
[56] = tested on: 786-0 renal
[57] = tested on: M14 melanoma

## COc1cc2c(/C=C3/C(=O)Nc4c3ccc3ccccc43)c(Cl)n(C)c2cc1C
[1]
  GI50: 0.666 µM
  TGI: 3.04 µM
[2]
  GI50: < 0.0193 µM
  TGI: 2.01 µM
[3]
  GI50: 0.4 µM
  TGI: 19.5 µM
[4]
  GI50: < 0.01 µM
[5]
  GI50: < 0.0224 µM
  TGI: 12.6 µM
[6]
  GI50: 0.0731 µM
  TGI: 1.06 µM
[7]
  GI50: 0.0746 µM
  TGI: 0.18 µM
[8]
  GI50: 0.235 µM
  TGI: 0.599 µM
[9]
  GI50: 0.275 µM
  TGI: 6.29 µM
[10]
  GI50: < 0.047 µM
[11]
  GI50: < 0.044 µM
[12]
  GI50: 0.899 µM
  TGI: 12.6 µM
[13]
  GI50: 0.0597 µM
  TGI: > 100 µM
[14]
  GI50: 0.68 µM
  TGI: 16 µM
[15]
  GI50: 0.705 µM
  TGI: 22.4 µM
[16]
  GI50: 0.358 µM
  TGI: 1.89 µM
[17]
  GI50: < 0.0196 µM
[18]
  GI50: 0.0424 µM
  TGI: 16.1 µM
[19]
  GI50: 0.194 µM
  TGI: 21.5 µM
[20]
  GI50: < 0.0156 µM
  TGI: < 0.0303 µM
[21]
  GI50: 0.137 µM
  TGI: 13.7 µM
[22]
  GI50: 0.156 µM
  TGI: 19.4 µM
[23]
  GI50: < 0.0179 µM
[24]
  GI50: 0.0539 µM
  TGI: 0.882 µM
[25]
  GI50: < 0.0132 µM
  TGI: < 0.0197 µM
[26]
  GI50: < 0.0216 µM
  TGI: 17.3 µM
[27]
  GI50: 1.27 µM
  TGI: 24.5 µM
[28]
  TGI: 14.7 µM
[29]
  GI50: < 0.0189 µM
  TGI: > 28 µM
[30]
  GI50: < 0.01 µM
  TGI: < 0.0126 µM
[31]
  GI50: 0.0248 µM
  TGI: 0.0629 µM
[32]
  GI50: < 0.0263 µM
[33]
  GI50: 1.52 µM
  TGI: 11.6 µM
[34]
  TGI: 10.5 µM
[35]
  GI50: < 0.01 µM
[36]
  GI50: 0.132 µM
  TGI: 3.57 µM
[37]
  GI50: < 0.0204 µM
[38]
  GI50: 0.0203 µM
  TGI: 2.98 µM
[39]
  GI50: < 0.0223 µM
  TGI: 18.7 µM
[40]
  GI50: < 0.0154 µM
  TGI: < 0.0291 µM
[41]
  GI50: < 0.0147 µM
  TGI: 10.1 µM
[42]
  TGI: > 47.7 µM
[43]
  GI50: 0.636 µM
  TGI: 1.3 µM
[44]
  GI50: 0.177 µM
  TGI: 13 µM
[45]
  GI50: 0.0962 µM
  TGI: 3.51 µM
[46]
  GI50: 0.104 µM
  TGI: 8.45 µM
[47]
  TGI: 0.905 µM
[48]
  GI50: 0.0384 µM
  TGI: 22.2 µM
[49]
  GI50: 1.11 µM
  TGI: 11.8 µM
[50]
  GI50: 16.9 µM
  TGI: > 100 µM
[51]
  GI50: 0.378 µM
  TGI: 17.3 µM
[52]
  GI50: 1.26 µM
  TGI: 12.8 µM
[53]
  GI50: < 0.01 µM
  TGI: 29.3 µM
[54]
  GI50: 0.104 µM
  TGI: 15.4 µM
[55]
  GI50: < 0.0183 µM
  TGI: 6.17 µM

## Clc1ccc2c(N3CCN(c4ccnc(NC5CCCCC5)n4)CC3)ccnc2c1
[56]
  GI50: 1.69 µM
  TGI: 3.14 µM
[1]
  GI50: 1.79 µM
  TGI: 8.22 µM
[2]
  GI50: 3.17 µM
  TGI: 10.8 µM
[4]
  GI50: 1.75 µM
  TGI: 3.31 µM
[5]
  GI50: 2.21 µM
  TGI: 6.87 µM
[6]
  GI50: 2.07 µM
  TGI: 6.07 µM
[7]
  GI50: 1.77 µM
  TGI: 3.43 µM
[8]
  GI50: 3.78 µM
  TGI: 13 µM
[10]
  GI50: 1.93 µM
  TGI: 3.88 µM
[11]
  GI50: 1.36 µM
  TGI: 2.8 µM
[12]
  GI50: 2.26 µM
  TGI: 6.74 µM
[13]
  GI50: 2.22 µM
  TGI: 5.07 µM
[14]
  GI50: 2.35 µM
  TGI: 5.73 µM
[15]
  GI50: 1.68 µM
  TGI: 4.99 µM
[16]
  GI50: 2.41 µM
  TGI: 8.08 µM
[17]
  GI50: 1.85 µM
  TGI: 4.06 µM
[18]
  GI50: 2.27 µM
  TGI: 5.04 µM
[19]
  GI50: 2.19 µM
  TGI: 5.43 µM
[20]
  GI50: 2.16 µM
  TGI: 4.49 µM
[21]
  GI50: 1.92 µM
  TGI: 3.46 µM
[57]
  GI50: 1.78 µM
  TGI: 3.42 µM
[22]
  GI50: 1.98 µM
  TGI: 4.02 µM
[23]
  GI50: 1.76 µM
  TGI: 4.02 µM
[24]
  GI50: 2.01 µM
  TGI: 3.97 µM
[25]
  GI50: 1.91 µM
  TGI: 3.88 µM
[26]
  GI50: 2.13 µM
  TGI: 5.47 µM
[27]
  GI50: 3.41 µM
  TGI: 16.6 µM
[28]
  GI50: 3.4 µM
  TGI: 9.71 µM
[29]
  GI50: 2.05 µM
  TGI: 4.23 µM
[30]
  GI50: 1.97 µM
  TGI: 3.84 µM
[31]
  GI50: 2.44 µM
  TGI: 6.66 µM
[32]
  GI50: 1.74 µM
  TGI: 3.49 µM
[33]
  GI50: 2.56 µM
  TGI: 11.2 µM
[35]
  GI50: 3.27 µM
  TGI: 12.6 µM
[36]
  GI50: 1.56 µM
  TGI: 3.3 µM
[37]
  GI50: 1.81 µM
  TGI: 4.69 µM
[38]
  GI50: 1.84 µM
  TGI: 3.54 µM
[39]
  GI50: 3.65 µM
  TGI: 13.3 µM
[40]
  GI50: 1.91 µM
  TGI: 3.79 µM
[43]
  GI50: 1.7 µM
  TGI: 3.14 µM
[44]
  GI50: 4.2 µM
  TGI: 14 µM
[45]
  GI50: 1.79 µM
  TGI: 3.6 µM
[46]
  GI50: 2.47 µM
  TGI: 7.33 µM
[47]
  GI50: 2.16 µM
  TGI: 6.74 µM
[48]
  GI50: 1.83 µM
  TGI: 4.48 µM
[49]
  GI50: 1.68 µM
  TGI: 3.72 µM
[50]
  GI50: 2.11 µM
  TGI: 5.5 µM
[51]
  GI50: 2.29 µM
  TGI: 5.16 µM
[52]
  GI50: 1.62 µM
  TGI: 3 µM
[53]
  GI50: 1.95 µM
  TGI: 4.11 µM
[54]
  GI50: 1.7 µM
  TGI: 3.26 µM
[55]
  GI50: 1.31 µM
  TGI: 2.87 µM
